Patent US10717716B2, “1,3,4-oxadiazole derivative compounds as histone deacetylase 6 inhibitor, and the pharmaceutical composition comprising the same” (Chong Kun Dang Pharmaceutical Corp., priority 2015, dated 2020)

Target: T1, human recombinant HDAC6 (Homo sapiens, UniProt Q9UBN7)
T1 construct: purchased Calbiochem 382180
T1 sequence (Q9UBN7 1-1215): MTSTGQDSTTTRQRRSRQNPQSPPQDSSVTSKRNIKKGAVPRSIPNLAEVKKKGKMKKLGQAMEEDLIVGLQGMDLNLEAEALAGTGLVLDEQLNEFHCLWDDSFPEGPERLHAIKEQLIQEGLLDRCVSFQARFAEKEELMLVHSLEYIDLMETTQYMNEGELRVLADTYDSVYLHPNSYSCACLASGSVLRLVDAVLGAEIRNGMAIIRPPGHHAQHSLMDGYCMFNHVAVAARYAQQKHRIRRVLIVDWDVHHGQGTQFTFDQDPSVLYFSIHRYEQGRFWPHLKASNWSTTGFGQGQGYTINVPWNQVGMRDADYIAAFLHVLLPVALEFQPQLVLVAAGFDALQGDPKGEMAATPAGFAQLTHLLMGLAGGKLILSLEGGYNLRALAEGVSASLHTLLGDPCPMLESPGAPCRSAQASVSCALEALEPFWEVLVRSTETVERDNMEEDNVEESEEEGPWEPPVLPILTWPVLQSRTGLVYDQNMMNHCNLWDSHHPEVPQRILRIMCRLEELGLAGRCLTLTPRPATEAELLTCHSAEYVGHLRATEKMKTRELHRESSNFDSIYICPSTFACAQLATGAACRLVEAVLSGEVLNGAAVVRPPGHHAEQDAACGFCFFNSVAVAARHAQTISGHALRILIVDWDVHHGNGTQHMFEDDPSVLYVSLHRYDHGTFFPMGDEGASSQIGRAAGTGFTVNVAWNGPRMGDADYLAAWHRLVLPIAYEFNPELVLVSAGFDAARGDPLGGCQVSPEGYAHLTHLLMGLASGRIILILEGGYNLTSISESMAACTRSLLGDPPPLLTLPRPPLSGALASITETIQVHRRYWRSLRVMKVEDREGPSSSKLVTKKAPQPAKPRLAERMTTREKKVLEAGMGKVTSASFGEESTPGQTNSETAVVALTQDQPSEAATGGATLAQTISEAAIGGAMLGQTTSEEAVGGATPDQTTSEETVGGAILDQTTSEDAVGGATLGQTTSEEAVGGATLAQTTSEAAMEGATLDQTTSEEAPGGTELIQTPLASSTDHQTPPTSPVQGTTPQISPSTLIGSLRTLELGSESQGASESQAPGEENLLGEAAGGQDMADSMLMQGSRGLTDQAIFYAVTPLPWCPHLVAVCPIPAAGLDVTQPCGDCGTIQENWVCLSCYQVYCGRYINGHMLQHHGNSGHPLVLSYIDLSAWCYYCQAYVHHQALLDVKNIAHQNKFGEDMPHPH
Assay: HDAC6 enzyme activity inhibition assay (HDAC Fluorimetric Drug Discovery Kit)
Type: biochemical
Settings: for HDAC6 selectivity (fold): HDAC6 over HDAC1; for IC50: human recombinant HDAC6, same protocol as HDAC1, read-out: HDAC6
Outline: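 Fluorimetric deacetylase assay: 5-fold serial compound dilutions, 0.3 μg recombinant human enzyme (HDAC1 or HDAC6, same protocol), 10 μM Fluor de Lys-SIRT1 substrate, 60 min at 30 °C. Signal developed 30 min, measured at 360/460 nm; IC50 values derived.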

SMILES | HDAC6 selectivity (fold) | IC50
Cn1ncc2cccc(N(Cc3ccc(-c4nnc(C(F)F)o4)cc3F)C(=O)N3CCS(=O)(=O)CC3)c21 [Compound 21708, N-(4-(5-(Difluoromethyl)-1,3,4-oxadiazol-2-yl)-2-fluorobenzyl)-N-(1-methyl-1H-indazol-7-yl)thiomorpholine-4-carboxamide 1,1-dioxide] | 167 fold | 60 nM
O=C(N1CC2(COC2)C1)N(Cc1ccc(-c2nnc(C(F)F)o2)cc1F)c1cccc(F)c1 [Compound 21759, N-(4-(5-(difluoromethyl)-1,3,4-oxadiazol-2-yl)-2-fluorobenzyl)-N-(3-fluorophenyl)-2-oxa-6-azaspiro[3.3]heptane-6-carboxamide] | 405 fold | 25 nM
Cc1cccc(N(Cc2ccc(-c3nnc(C(F)F)o3)cc2F)C(=O)N2CC3(COC3)C2)c1 [Compound 21760, N-(4-(5-(difluoromethyl)-1,3,4-oxadiazol-2-yl)-2-fluorobenzyl)-N-(m-tolyl)-2-oxa-6-azaspiro[3.3]heptane-6-carboxamide] | 215 fold | 46 nM
CCN1CC2(CCN(C(=O)N(Cc3ccc(-c4nnc(C(F)F)o4)cc3F)c3ccc4cnn(C)c4c3)CC2)C1 [Compound 21765, N-(4-(5-(Difluoromethyl)-1,3,4-oxadiazol-2-yl)-2-fluorobenzyl)-2-ethyl-N-(1-methyl-1H-indazol-6-yl)-2,7-diazaspiro[3.5]nonane-7-carboxamide] | 88 fold | 114 nM
O=C(N1CCOCC1)N(Cc1ccc(-c2nnc(C(F)F)o2)nc1)c1ccc(F)c(Cl)c1 [Compound 21766, N-(3-Chloro-4-fluorophenyl)-N-((6-(5-(difluoromethyl)-1,3,4-oxadiazol-2-yl)pyridin-3-yl)methyl)morpholine-4-carboxamide] | 88 fold | 114 nM
O=C(N1CCS(=O)(=O)CC1)N(Cc1ccc(-c2nnc(C(F)F)o2)nc1)c1ccc(F)c(Cl)c1 [Compound 21767, N-(3-Chloro-4-fluorophenyl)-N-((6-(5-(difluoromethyl)-1,3,4-oxadiazol-2-yl)pyridin-3-yl)methyl)thiomorpholine-4-carboxamide 1,1-dioxide] | 9 fold | 1140 nM
O=C(N1CCS(=O)(=O)CC1)N(Cc1ccc(-c2nnc(C(F)F)o2)cc1F)c1ccc2c(c1)CCC2 [Compound 21797, N-(4-(5-(Difluoromethyl)-1,3,4-oxadiazol-2-yl)-2-fluorobenzyl)-N-(2,3-dihydro-1H-inden-5-yl)thiomorpholine-4-carboxamide 1,1-dioxide] | 37 fold | 268 nM
CC1(C)Cc2cccc(N(Cc3ccc(-c4nnc(C(F)F)o4)cc3F)C(=O)N3CCS(=O)(=O)CC3)c2O1 [Compound 21798, N-(4-(5-(Difluoromethyl)-1,3,4-oxadiazol-2-yl)-2-fluorobenzyl)-N-(2,2-dimethyl-2,3-dihydrobenzofuran-7-yl)thiomorpholine-4-carboxamide 1,1-dioxide] | 8 fold | 1320 nM
Cn1ccc2cc(N(Cc3ccc(-c4nnc(C(F)F)o4)cc3F)C(=O)N3CCS(=O)(=O)CC3)ccc21 [Compound 21799, N-(4-(5-(difluoromethyl)-1,3,4-oxadiazol-2-yl)-2-fluorobenzyl)-N-(1-methyl-1H-indol-5-yl)thiomorpholine-4-carboxamide 1,1-dioxide] | 33 fold | 305 nM
O=C(N1CCS(=O)(=O)CC1)N(Cc1ccc(-c2nnc(C(F)F)o2)cc1F)c1ccc(F)cc1 [Compound 21806, N-(4-(5-(difluoromethyl)-1,3,4-oxadiazol-2-yl)-2-fluorobenzyl)-N-(4-fluorophenyl)thiomorpholine-4-carboxamide 1,1-dioxide] | 261 fold | 38 nM
O=C(N1CCS(=O)(=O)CC1)N(Cc1ccc(-c2nnc(C(F)F)o2)cc1F)c1cccc(F)c1 [Compound 21807, N-(4-(5-(difluoromethyl)-1,3,4-oxadiazol-2-yl)-2-fluorobenzyl)-N-(3-fluorophenyl)thiomorpholine-4-carboxamide 1,1-dioxide] | 256 fold | 39 nM
O=C(N1CCS(=O)(=O)CC1)N(Cc1ccc(-c2nnc(C(F)F)o2)cc1F)c1ccc(Cl)cc1 [Compound 21809, N-(4-chlorophenyl)-N-(4-(5-(difluoromethyl)-1,3,4-oxadiazol-2-yl)-2-fluorobenzyl)thiomorpholine-4-carboxamide 1,1-dioxide] | 174 fold | 57 nM
CCn1ncc2ccc(N(Cc3ccc(-c4nnc(C(F)F)o4)cc3F)C(=O)N3CCS(=O)(=O)CC3)cc21 [Compound 21811, N-(4-(5-(Difluoromethyl)-1,3,4-oxadiazol-2-yl)-2-fluorobenzyl)-N-(1-ethyl-1H-indazol-6-yl)thiomorpholine-4-carboxamide 1,1-dioxide] | 144 fold | 70 nM
CC(C)n1ncc2ccc(N(Cc3ccc(-c4nnc(C(F)F)o4)cc3F)C(=O)N3CCS(=O)(=O)CC3)cc21 [Compound 21812, N-(4-(5-(Difluoromethyl)-1,3,4-oxadiazol-2-yl)-2-fluorobenzyl)-N-(1-isopropyl-1H-indazol-6-yl)thiomorpholine-4-carboxamide 1,1-dioxide] | 94 fold | 107 nM
CC(C)c1nc2ccc(N(Cc3ccc(-c4nnc(C(F)F)o4)cc3F)C(=O)N3CCS(=O)(=O)CC3)cc2s1 [Compound 21813, N-(4-(5-(Difluoromethyl)-1,3,4-oxadiazol-2-yl)-2-fluorobenzyl)-N-(2-isopropylbenzo[d]thiazol-6-yl)thiomorpholine-4-carboxamide 1,1-dioxide] | 30 fold | 330 nM
O=C(N1CCOCC1)N(Cc1ccc(-c2nnc(C(F)F)o2)cc1F)c1ccc(F)cc1 [Compound 21841, N-(4-(5-(difluoromethyl)-1,3,4-oxadiazol-2-yl)-2-fluorobenzyl)-N-(4-fluorophenyl)morpholine-4-carboxamide] | 382 fold | 26 nM
O=C(N1CCOCC1)N(Cc1ccc(-c2nnc(C(F)F)o2)cn1)c1cccc(F)c1 [Compound 21843, N-((5-(5-(difluoromethyl)-1,3,4-oxadiazol-2-yl)pyridin-2-yl)methyl)-N-(3-fluorophenyl) morpholine-4-carboxamide] | 461 fold | 22 nM
O=C(N1CCOCC1)N(Cc1ccc(-c2nnc(C(F)F)o2)cc1F)c1ccc(Cl)cc1 [Compound 21849, N-(4-chlorophenyl)-N-(4-(5-(difluoromethyl)-1,3,4-oxadiazol-2-yl)-2-fluorobenzyl)morpholine-4-carboxamide] | 95 fold | 106 nM
O=C(N1CCOCC1)N(Cc1ccc(-c2nnc(C(F)F)o2)cn1)c1cccc(Cl)c1 [Compound 21851, N-(3-chlorophenyl)-N-((5-(5-(difluoromethyl)-1,3,4-oxadiazol-2-yl)pyridin-2-yl)methyl) morpholine-4-carboxamide] | 407 fold | 25 nM
